18 compounds from ChEMBL document CHEMBL1909046, “DrugMatrix in vitro pharmacology data” can be followed below.

The target in experiment [1] is 5-hydroxytryptamine receptor 1B (Rattus norvegicus, UniProt P28564). It counts as cell membranes, Wistar, Cerebral cortex, Membrane. Also: in other assays of this panel Not Active means under 50% inhibition at 10 µM.
Experiment [2] concerns the target Tyrosine-protein kinase Lck (Homo sapiens, UniProt P06239). The experiment in a line: DRUGMATRIX: Protein Tyrosine Kinase, LCK enzyme inhibition (substrate: Poly(Glu:Tyr)). Conditions: Not Active = under 50% inhibition at 10 µM. It counts as cell-based, Insect cells.
For experiment [3], the target named is C-C chemokine receptor type 2 (Homo sapiens, UniProt P41597). It counts as cell membranes, CHO-K1, Membrane. The following applies: cho-k1. Also: in other assays of this panel Not Active means under 50% inhibition at 10 µM.
Chain of C-C chemokine receptor type 2 (P41597 whole entry): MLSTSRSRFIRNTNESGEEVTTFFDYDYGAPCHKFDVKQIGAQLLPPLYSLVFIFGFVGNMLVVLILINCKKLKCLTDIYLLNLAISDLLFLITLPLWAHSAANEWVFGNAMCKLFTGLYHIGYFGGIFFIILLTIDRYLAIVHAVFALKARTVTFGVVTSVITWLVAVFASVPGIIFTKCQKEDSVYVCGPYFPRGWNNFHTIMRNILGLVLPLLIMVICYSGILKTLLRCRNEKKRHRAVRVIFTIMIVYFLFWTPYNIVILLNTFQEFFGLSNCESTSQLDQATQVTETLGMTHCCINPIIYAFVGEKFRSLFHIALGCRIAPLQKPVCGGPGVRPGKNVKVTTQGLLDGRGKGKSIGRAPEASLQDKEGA
Experiment [4] is described as follows: DRUGMATRIX: GABAA, Chloride Channel, TBOB radioligand binding (ligand: [3H] TBOB). It counts as cell membranes, Rattus norvegicus, Wistar, Cerebral cortex, Membrane. The following applies: Not Active = under 50% inhibition at 10 µM.
The target of experiment [5] is T1, C-X-C chemokine receptor type 2 (Homo sapiens, UniProt P25025). Also: in other assays of this panel Not Active means under 50% inhibition at 10 µM.
T1 sequence (P25025 whole entry): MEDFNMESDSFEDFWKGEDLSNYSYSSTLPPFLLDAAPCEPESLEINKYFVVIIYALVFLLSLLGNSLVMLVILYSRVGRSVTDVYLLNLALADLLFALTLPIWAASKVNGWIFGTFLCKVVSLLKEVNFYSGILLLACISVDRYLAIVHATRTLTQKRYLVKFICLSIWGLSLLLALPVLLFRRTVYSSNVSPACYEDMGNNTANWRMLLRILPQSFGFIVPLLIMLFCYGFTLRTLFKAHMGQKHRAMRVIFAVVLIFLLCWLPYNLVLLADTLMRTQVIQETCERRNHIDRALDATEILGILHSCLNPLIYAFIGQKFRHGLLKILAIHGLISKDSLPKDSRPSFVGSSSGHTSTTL
It counts as cell membranes, Membrane. Conditions: cho-k1.

Experiment [6] concerns the target T2, Cholecystokinin receptor type A (Homo sapiens, UniProt P32238). Also: in other assays of this panel Not Active means under 50% inhibition at 10 µM.
T2 sequence (P32238 whole entry): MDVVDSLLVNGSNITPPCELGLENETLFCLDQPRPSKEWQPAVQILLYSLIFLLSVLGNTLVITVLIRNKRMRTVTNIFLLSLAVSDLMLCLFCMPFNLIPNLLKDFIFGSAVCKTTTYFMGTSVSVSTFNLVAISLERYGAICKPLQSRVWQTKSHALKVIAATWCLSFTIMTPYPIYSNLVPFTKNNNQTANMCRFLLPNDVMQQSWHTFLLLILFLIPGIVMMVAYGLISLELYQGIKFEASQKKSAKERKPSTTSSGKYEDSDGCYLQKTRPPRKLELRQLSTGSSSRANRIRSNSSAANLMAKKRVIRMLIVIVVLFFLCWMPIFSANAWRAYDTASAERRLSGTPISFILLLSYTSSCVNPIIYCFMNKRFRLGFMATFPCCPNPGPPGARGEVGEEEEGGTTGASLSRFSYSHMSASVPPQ
It counts as cell membranes, Membrane. The following applies: 1321-n1.

A short description of experiment [7]: DRUGMATRIX: ATPase, Na+/K+ enzyme inhibition (substrate: ATP). It counts as tissue-based, Sus scrofa, Heart. The following applies: Not Active = under 50% inhibition at 10 µM.

Chain of Tyrosine-protein kinase Lck (P06239 whole entry): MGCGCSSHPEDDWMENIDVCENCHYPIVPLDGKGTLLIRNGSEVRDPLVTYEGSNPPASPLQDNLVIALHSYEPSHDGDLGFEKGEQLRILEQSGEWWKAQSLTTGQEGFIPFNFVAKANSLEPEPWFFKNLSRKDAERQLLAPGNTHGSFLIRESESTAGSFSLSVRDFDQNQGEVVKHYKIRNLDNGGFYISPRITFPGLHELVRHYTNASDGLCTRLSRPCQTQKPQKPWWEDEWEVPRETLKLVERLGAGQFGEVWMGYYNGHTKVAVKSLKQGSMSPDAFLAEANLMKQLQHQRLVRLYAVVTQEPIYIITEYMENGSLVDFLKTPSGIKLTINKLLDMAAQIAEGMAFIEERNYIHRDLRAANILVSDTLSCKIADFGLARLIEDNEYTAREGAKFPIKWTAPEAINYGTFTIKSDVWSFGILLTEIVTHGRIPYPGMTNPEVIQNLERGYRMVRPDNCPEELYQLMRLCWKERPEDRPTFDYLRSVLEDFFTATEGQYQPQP
Chain of 5-hydroxytryptamine receptor 1B (P28564 whole entry): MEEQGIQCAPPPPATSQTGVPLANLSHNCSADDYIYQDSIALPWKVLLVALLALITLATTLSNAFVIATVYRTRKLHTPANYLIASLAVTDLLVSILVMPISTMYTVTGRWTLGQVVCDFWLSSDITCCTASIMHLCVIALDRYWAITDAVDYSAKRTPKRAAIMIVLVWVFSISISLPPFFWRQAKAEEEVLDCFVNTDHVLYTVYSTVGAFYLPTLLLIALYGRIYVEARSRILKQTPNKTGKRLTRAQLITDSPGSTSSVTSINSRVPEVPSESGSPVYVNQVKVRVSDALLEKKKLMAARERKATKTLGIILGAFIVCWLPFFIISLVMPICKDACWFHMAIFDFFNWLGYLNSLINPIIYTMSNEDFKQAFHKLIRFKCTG

The term IC50 denotes the concentration that inhibits the measured activity by half. In general, Ki refers to a dissociation constant, usually derived from enzyme kinetics or from competition with a known ligand. With `Nc1nc(N)nc(NC2CC2)n1` [CYROMAZINE], the IC50 entry in experiment [1], in experiment [2] (insect cells), in experiment [3], in experiment [4], in experiment [5] and in experiment [6] was “Not Active” each time. Moreover, the IC50 result in experiment [7] is recorded as “Not Active”. Also, the Ki entry in experiment [4] and in experiment [7] was “Not Active” each time.
As to `C#C[C@]1(O)CC[C@H]2[C@@H]3CCC4=Cc5oncc5C[C@]4(C)[C@H]3CC[C@@]21C` [DANAZOL], the half-maximal inhibitory concentration (IC50) entry in experiment [1], in experiment [2] (insect cells), in experiment [3], in experiment [4], in experiment [5] and in experiment [6] was “Not Active” in each case. Besides, the IC50 entry in experiment [7] was “Not Active”. For the same compound, the Ki result in experiment [4] and in experiment [7] was “Not Active” in each case.
For `CCN[C@@H](C)Cc1cccc(C(F)(F)F)c1` [DEXFENFLURAMINE], the IC50 entry in experiment [1], in experiment [2] (insect cells), in experiment [3], in experiment [4], in experiment [5] and in experiment [6] was “Not Active” each time. Besides, the IC50 result in experiment [7] was “Not Active”. The Ki entry in experiment [4] and in experiment [7] was “Not Active” each time.
With `C[C@H](C(=O)O)c1cccc(C(=O)c2ccccc2)c1` [DEXKETOPROFEN], the IC50 result in experiment [1], in experiment [2] (insect cells), in experiment [3], in experiment [4], in experiment [5] and in experiment [6] was “Not Active” throughout. The IC50 entry in experiment [7] is “Not Active”. In addition, the Ki entry in experiment [4] and in experiment [7] was “Not Active” throughout.
Regarding `CN1C(=O)CN=C(c2ccccc2)c2cc(Cl)ccc21` [DIAZEPAM], the IC50 entry in experiment [1], in experiment [2] (insect cells), in experiment [3], in experiment [4], in experiment [5] and in experiment [6] was “Not Active” throughout. The IC50 entry in experiment [7] is reported as “Not Active”. Also, the Ki result in experiment [4] and in experiment [7] was “Not Active” throughout.
Consider `CN1C[C@H](C(=O)N[C@]2(C)O[C@@]3(O)[C@@H]4CCCN4C(=O)[C@H](Cc4ccccc4)N3C2=O)C[C@@H]2c3cccc4[nH]cc(c34)C[C@H]21` [DIHYDROERGOTAMINE], for which the IC50 in experiment [1] (read-out: IC50) was 0.846 nM; in experiment [2] (insect cells), “Not Active”; in experiment [3], “Not Active”; in experiment [4], “Not Active”; in experiment [5], “Not Active”; in experiment [6], “Not Active”. In addition, the IC50 result in experiment [7] was “Not Active”. Further, the Ki in experiment [1] (read-out: Ki) was 0.384 nM; in experiment [4], “Not Active”; in experiment [7], “Not Active”.
As for `Cc1c(N(C)CS(=O)(=O)[O-])c(=O)n(-c2ccccc2)n1C.[Na+]` [DIPYRONE SODIUM], the IC50 result in experiment [1], in experiment [2] (insect cells), in experiment [3], in experiment [4], in experiment [5] and in experiment [6] was “Not Active” throughout. Also, in experiment [7], the IC50 entry was “Not Active”. Besides, the inhibition constant (Ki) result in experiment [4] and in experiment [7] was “Not Active” each time.
`CC(CCc1ccc(O)cc1)NCCc1ccc(O)c(O)c1` (stereo not drawn) [DOBUTAMINE]: the IC50 entry in experiment [1] is “Not Active”; in experiment [2] (read-out: IC50), 5520 nM; in experiment [3], “Not Active”; in experiment [4] it was “Not Active”; in experiment [5], “Not Active”; in experiment [6] it was “Not Active”. Further, the IC50 result in experiment [7] is “Not Active”. Also, the Ki entry in experiment [4] and in experiment [7] was “Not Active” each time.
For `CCn1cc(C(=O)O)c(=O)c2cc(F)c(N3CCNCC3)nc21` [ENOXACIN], the IC50 result in experiment [1], in experiment [2] (insect cells), in experiment [3], in experiment [4], in experiment [5] and in experiment [6] was “Not Active” each time. For the same compound, the IC50 result in experiment [7] is listed as “Not Active”. Further, the Ki entry in experiment [4] and in experiment [7] was “Not Active” each time.
As for `CCC(=O)O[C@H]1[C@H](O[C@@H]2[C@@H](C)[C@H](O[C@H]3C[C@@](C)(OC)[C@@H](O)[C@H](C)O3)[C@@H](C)C(=O)O[C@H](CC)[C@@](C)(O)[C@H](O)[C@@H](C)C(=O)[C@H](C)C[C@@]2(C)O)O[C@H](C)C[C@@H]1N(C)C` [ERYTHROMYCIN PROPIONATE], the IC50 entry in experiment [1], in experiment [2] (insect cells), in experiment [3], in experiment [4], in experiment [5] and in experiment [6] was “Not Active” throughout. For the same compound, the IC50 result in experiment [7] is “Not Active”. For the same compound, the Ki entry in experiment [4] and in experiment [7] was “Not Active” in each case.
With `C=C(CC)C(=O)c1ccc(OCC(=O)O)c(Cl)c1Cl` [ETHACRYNIC ACID], the IC50 entry in experiment [1], in experiment [2] (insect cells), in experiment [3], in experiment [4], in experiment [5] and in experiment [6] was “Not Active” each time. Further, the IC50 result in experiment [7] is on record as “Not Active”. For the same compound, the Ki entry in experiment [4] and in experiment [7] was “Not Active” in each case.
`C#C[C@]1(O)CC[C@H]2[C@@H]3CCc4cc(O)ccc4[C@H]3CC[C@@]21C` [ETHINYL ESTRADIOL]: the IC50 entry in experiment [1], in experiment [2] (insect cells), in experiment [3], in experiment [4], in experiment [5] and in experiment [6] was “Not Active” throughout. The IC50 entry in experiment [7] is “Not Active”. For the same compound, the Ki result in experiment [4] and in experiment [7] was “Not Active” in each case.
Consider `OCCO` [ETHYLENE GLYCOL], for which the IC50 result in experiment [1], in experiment [2] (insect cells), in experiment [3], in experiment [4], in experiment [5] and in experiment [6] was “Not Active” in each case. Further, in experiment [7], the IC50 result was “Not Active”. For the same compound, the Ki entry in experiment [4] and in experiment [7] was “Not Active” in each case.
Turning to `CC(=O)OCC(CCn1cnc2cnc(N)nc21)COC(C)=O` [FAMCICLOVIR], the 50% inhibitory concentration (IC50) result in experiment [1], in experiment [2] (insect cells), in experiment [3], in experiment [4], in experiment [5] and in experiment [6] was “Not Active” each time. Also, in experiment [7], the IC50 entry is “Not Active”. Besides, the Ki result in experiment [4] and in experiment [7] was “Not Active” in each case.
With `O=C(O)Cc1ccc(-c2ccccc2)cc1` [FELBINAC], the IC50 entry in experiment [1], in experiment [2] (insect cells), in experiment [3], in experiment [4], in experiment [5] and in experiment [6] was “Not Active” in each case. For the same compound, the IC50 result in experiment [7] is reported as “Not Active”. For the same compound, the Ki result in experiment [4] and in experiment [7] was “Not Active” in each case.
For `CCOC(=O)C1=C(C)NC(C)=C(C(=O)OC)C1c1cccc(Cl)c1Cl` (stereo not drawn) [FELODIPINE], the IC50 entry in experiment [1], in experiment [2] (insect cells), in experiment [3], in experiment [4], in experiment [5] and in experiment [6] was “Not Active” throughout. For the same compound, the IC50 entry in experiment [7] is reported as “Not Active”. Also, the Ki entry in experiment [4] and in experiment [7] was “Not Active” each time.
With `CC(C(=O)O)c1ccc(-c2ccccc2)c(F)c1` (stereo not drawn) [FLURBIPROFEN], the IC50 result in experiment [1], in experiment [2] (insect cells), in experiment [3], in experiment [4], in experiment [5] and in experiment [6] was “Not Active” throughout. Besides, the IC50 result in experiment [7] is “Not Active”. Also, the Ki entry in experiment [4] and in experiment [7] was “Not Active” each time.
With `Cc1cn[nH]c1` [FOMEPIZOLE], the IC50 entry in experiment [1], in experiment [2] (insect cells), in experiment [3], in experiment [4], in experiment [5] and in experiment [6] was “Not Active” in each case. Moreover, the IC50 entry in experiment [7] is “Not Active”. Also, the Ki entry in experiment [4] and in experiment [7] was “Not Active” in each case.
